Here are results for 18 molecules from patent US8609727B2, “Dicarboxylic acid derivatives and their use” (Bayer Intellectual Property GmbH, priority 2005, dated 2013).

The target in one assay is T1, Haem-free sGC (recombinant soluble guanylate cyclase) (Rattus norvegicus, UniProt P20595).
T1 construct: made in house; host or cells: Sf9 insect cells (baculovirus)
T1 sequence (P20595 1-619): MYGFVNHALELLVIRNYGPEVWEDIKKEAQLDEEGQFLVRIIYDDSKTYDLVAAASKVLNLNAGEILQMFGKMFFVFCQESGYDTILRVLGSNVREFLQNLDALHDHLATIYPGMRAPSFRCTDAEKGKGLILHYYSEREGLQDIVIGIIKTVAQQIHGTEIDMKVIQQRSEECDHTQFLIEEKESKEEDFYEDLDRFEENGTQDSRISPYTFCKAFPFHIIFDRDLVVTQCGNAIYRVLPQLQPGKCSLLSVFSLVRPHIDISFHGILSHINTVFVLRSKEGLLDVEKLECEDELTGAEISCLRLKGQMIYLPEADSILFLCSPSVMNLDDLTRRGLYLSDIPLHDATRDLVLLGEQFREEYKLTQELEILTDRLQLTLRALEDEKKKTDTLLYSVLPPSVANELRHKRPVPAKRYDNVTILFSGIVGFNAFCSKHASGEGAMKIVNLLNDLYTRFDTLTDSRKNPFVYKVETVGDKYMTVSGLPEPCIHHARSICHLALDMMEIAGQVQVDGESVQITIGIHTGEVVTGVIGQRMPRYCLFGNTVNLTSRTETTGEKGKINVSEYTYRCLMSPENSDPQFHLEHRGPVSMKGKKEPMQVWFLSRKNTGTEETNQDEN
T1 sequence (P19686 1-690 partner): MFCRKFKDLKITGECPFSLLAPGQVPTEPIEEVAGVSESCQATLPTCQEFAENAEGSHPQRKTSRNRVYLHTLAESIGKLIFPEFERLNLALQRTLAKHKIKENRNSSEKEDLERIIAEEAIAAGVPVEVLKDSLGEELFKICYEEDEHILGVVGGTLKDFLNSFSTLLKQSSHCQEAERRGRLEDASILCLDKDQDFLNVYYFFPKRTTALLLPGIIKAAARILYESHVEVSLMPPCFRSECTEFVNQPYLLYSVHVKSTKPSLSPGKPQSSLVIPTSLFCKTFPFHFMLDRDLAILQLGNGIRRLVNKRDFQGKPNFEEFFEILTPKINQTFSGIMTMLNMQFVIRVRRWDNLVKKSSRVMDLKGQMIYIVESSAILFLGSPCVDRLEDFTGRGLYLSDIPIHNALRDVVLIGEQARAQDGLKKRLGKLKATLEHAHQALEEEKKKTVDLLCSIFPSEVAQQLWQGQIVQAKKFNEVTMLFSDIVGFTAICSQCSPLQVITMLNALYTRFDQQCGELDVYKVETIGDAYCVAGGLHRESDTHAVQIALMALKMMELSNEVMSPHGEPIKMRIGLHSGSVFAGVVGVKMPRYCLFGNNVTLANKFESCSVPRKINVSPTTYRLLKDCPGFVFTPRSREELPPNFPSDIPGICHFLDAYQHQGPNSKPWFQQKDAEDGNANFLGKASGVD
The assay can be described thus: Stimulation of recombinant soluble guanylate cyclase (sGC) in vitro, haem-free enzyme. Conditions: 10 μM ODQ, 0.0 μM Example 5. The assay is classed as biochemical. The procedure: (§1) B-2. Stimulation of Recombinant Soluble Guanylate Cyclase (sGC) In Vitro:
Investigations on the stimulation of recombinant soluble guanylate cyclase (sGC) by the compounds according to the invention with and without sodium nitroprusside, and with and without the haem-dependent sGC inhibitor 1H-1,2,4-oxadiazole-(4,3a)-quinoxalin-1-one (ODQ) are carried out by the method described in detail in the following reference: M. Hoenicka, E. M. Becker, H. Apeler, T. Sirichoke, H. Schroeder, R. Gerzer and J.-P. Stasch, “Purified soluble guanylyl cyclase expressed in a baculovirus/Sf9 system: Stimulation by YC-1, nitric oxide, and […]”, J. Mol. Med. 77 (1999), 14-23. The haem-free guanylate cyclase is obtained by adding Tween 20 to the sample buffer (0.5% in the final concentration).
(§2) The activation of sGC by a test substance is reported as n-fold stimulation of the basal activity.
Regarding `O=c1onc2cnc3ccccc3n12` [ODQ, 1H-1,2,4-oxadiazole-(4,3a)-quinoxalin-1-one, reference compound], the “Stimulation (n-fold) Haem-free sGC with ODQ alone” value came to 2.0 n-fold.

In the next assay the target is T2, Haem-containing sGC (recombinant soluble guanylate cyclase) (Rattus norvegicus, UniProt P20595).
T2 construct: made in house; host or cells: Sf9 insect cells (baculovirus)
T2 sequence (P20595 1-619): T1 sequence (P20595 1-619)
T2 sequence (P19686 1-690 partner): T1 sequence (P19686 1-690 partner)
The assay is described as follows: Stimulation of recombinant soluble guanylate cyclase (sGC) in vitro, haem-containing enzyme. The assay is classed as biochemical. Conditions: 0.1 μM DEA/NO, 0.0 μM Example 5.
Excerpt: as §1
Hoenicka, E. M. Becker, H. Apeler, T. Sirichoke, H. Schroeder, R. Gerzer and J.-P. Stasch, “Purified soluble guanylyl cyclase expressed in a baculovirus/Sf9 system: Stimulation by YC-1, nitric oxide, and carbon oxide”, J. Mol. Med. 77 (1999), 14-23. The haem-free guanylate cyclase is obtained by adding Tween 20 to the sample buffer (0.5% in the final concentration).
as §2
On to `CCN(CC)[N+]([O-])=NO` [DEA/NO, 2-(N,N-diethylamino)diazenolate 2-oxide, reference compound], for which the “Stimulation (n-fold) Haem-containing sGC by DEA/NO alone” value worked out at 78.7 n-fold.

The same assay, now with this note: 10 μM ODQ, 0.0 μM Example 5.
For the molecule `O=c1onc2cnc3ccccc3n12` [ODQ, 1H-1,2,4-oxadiazole-(4,3a)-quinoxalin-1-one, reference compound], the “Stimulation (n-fold) Haem-containing sGC with ODQ alone” value is recorded as 38.8 n-fold.

The next assay deals with saphenous artery rings. The assay is described as follows: Vasorelaxant effect in vitro (phenylephrine-contracted artery rings). The assay is classed as cell-based, Rabbits. Particulars: Oryctolagus cuniculus, rabbit saphenous artery rings, contraction induced by phenylephrine. The procedure: B-1. Vasorelaxant Effect In Vitro:
Rabbits are anaesthetized and sacrificed by intravenous injection of thiopental sodium (about 50 mg/kg) and exsanguinated. The saphenous artery is removed and divided into rings 3 mm wide. The rings are mounted singly on in each case a pair of triangular hooks open at the end and made of 0.3 mm-thick special wire (Remanium®). Each ring is placed under an initial tension in 5 ml organ baths with Krebs-Henseleit solution which is at 37° C., is gassed with 95% O2/5% CO2 and has the following composition: NaCl 119 mM; KCl 4.8 mM; CaCl2×2H2O 1 mM; MgSO4×7H2O 1.4 mM; KH2PO4 1.2 mM; NaHCO3 25 mM; glucose 10 mM; bovine serum albumin 0.001%. The force of contraction is detected with Statham UC2 cells, amplified and digitized via A/D converters (DAS-1802 HC, Keithley Instruments, Munich) and recorded in parallel on chart recorders. Contractions are induced by addition of phenylephrine.
After several (generally 4) control cycles, the substance to be investigated is added in each further run in increasing dosage, and the height of the contraction achieved under the influence of the test substance is compared with the height of the contraction reached in the last preceding run. The concentration necessary to reduce the contraction reached in the preceding control by 50% is calculated from this (IC50). The standard application volume is 5 μl. The proportion of DMSO in the bath solution corresponds to 0.1%.
Turning to `O=C(O)c1ccc(CCC(/C=C/c2cc(F)ccc2OCc2ccc(C(F)(F)F)cc2)Cc2ccc(C(=O)O)cc2)cc1` (single isomer, unassigned) [Example 54, 4-[(4E)-3-(4-Carboxybenzyl)-5-(5-fluoro-2-{[4-(trifluoromethyl)benzyl]oxy}phenyl)pent-4-en-1-yl]benzoic Acid], the IC50 came out at 90 nM.

For the molecule `O=C(O)c1ccc(CCC(/C=C/c2ccccc2OC(F)(F)c2ccc(C(F)(F)F)cc2)Cc2ccc(C(=O)O)cc2)cc1` (stereo not shown) [Example 50], the half-maximal inhibitory concentration (IC50) was 370 nM.

As to `O=C(O)c1ccc(CCC(/C=C/c2cc(F)ccc2OCc2ccc(C(F)(F)F)cc2)Cc2ccc(C(=O)O)cc2)cc1` (stereo not shown) [Example 55], the midpoint of inhibition, the IC50, lay at 287 nM. The IC50 values of the last two molecules are within 1.5-fold of each other.

`O=C(O)c1ccc(CCC(/C=C/c2ccccc2OCc2ccc(CCc3ccccc3)cc2)Cc2ccc(C(=O)O)cc2)cc1` (racemic) [Example 7, 4-[(4E)-3-(4-Carboxybenzyl)-5-(2-{[4-(2-phenylethyl)benzyl]oxy}phenyl)pent-4-en-1-yl]benzoic acid]: 21 nM corresponded to half-maximal inhibition (IC50). Compared with the last molecule, the IC50 is about 14-fold lower.

Consider `O=C(O)c1ccc(CCC(/C=C/c2ccccc2OCCCC(F)(F)F)Cc2ccc(C(=O)O)cc2)cc1` (racemic) [Example 11, 4-{(4E)-3-(4-Carboxybenzyl)-5-[2-(4,4,4-trifluorobutoxy)phenyl]pent-4-en-1-yl}benzoic Acid], for which inhibition was half-maximal at 129 nM (IC50). This IC50 is about 6.1-fold higher than that of the molecule before.

`CCCCCOc1ccccc1/C=C/C(CCc1ccc(C(=O)O)cc1)Cc1ccc(C(=O)O)cc1` (racemic) [Example 17, 4-{(4E)-3-(4-Carboxybenzyl)-5-[2-(pentyloxy)phenyl]pent-4-en-1-yl}benzoic Acid] registered an IC50 of 1.1 nM.

Molecule `COc1ccccc1/C=C/C(CCc1ccc(C(=O)O)cc1)Cc1ccc(C(=O)O)cc1` (racemic) [Example 13, 4-[(4E)-3-(4-Carboxybenzyl)-5-(2-methoxyphenyl)pent-4-en-1-yl]benzoic Acid] had an IC50 of 52.2 nM.

In turn, `O=C(O)c1ccc(CCC(C=Cc2ccccc2OCc2ccc(-c3ccc(C(F)(F)F)cc3)cc2)Cc2ccc(C(=O)O)cc2)cc1` (stereo not shown) [Example 10, 4-[(4E/Z)-3-(4-Carboxybenzyl)-5-(2-{[4′-(trifluoromethyl)biphenyl-4-yl]methoxy}phenyl)pent-4-en-1-yl]benzoic Acid] gave an IC50 of 48 nM.

`O=C(O)c1ccc(CCC(/C=C/c2ccccc2OCc2cc(C(F)(F)F)cc(C(F)(F)F)c2)Cc2ccc(C(=O)O)cc2)cc1` (stereo not shown) [Example 48]: it took 4 nM to reach half-maximal inhibition (IC50). This IC50 lies about 12-fold lower than the previous one.

`O=C(O)c1ccc(CCC(/C=C/c2ccccc2OCCCCC(F)(F)F)Cc2ccc(C(=O)O)cc2)cc1` (racemic) [Example 42, 4-[(4E)-3-(4-Carboxybenzyl)-5-{2-[(5,5,5-trifluoropentyl)oxy]phenyl}pent-4-en-1-yl]benzoic Acid] had an IC50 of 19 nM. Against the preceding molecule, the IC50 is about 4.8-fold higher.

`O=C(O)c1ccc(CCC(/C=C/c2cc(F)ccc2OCc2ccc(OC(F)(F)F)cc2)Cc2ccc(C(=O)O)cc2)cc1` (stereo not shown) [Example 56]: the IC50 came out at 77 nM. This IC50 lies about 4.1-fold higher than the previous one.

Consider `O=C(O)c1ccc(CCC(/C=C/c2ccccc2OCc2ccc(C(F)(C(F)(F)F)C(F)(F)F)cc2)Cc2ccc(C(=O)O)cc2)cc1` (stereo not shown) [Example 44, 4-{(4E)-3-(4-Carboxybenzyl)-5-[2-({4-[1,2,2,2-tetrafluoro-1-(trifluoromethyl)ethyl]benzyl}oxy)-phenyl]pent-4-en-1-yl}benzoic Acid], for which the IC50 stood at 22 nM.

`O=C(O)c1ccc(CCC(/C=C/c2ccccc2OCc2ccc(OC(F)(F)F)cc2)Cc2ccc(C(=O)O)cc2)cc1` (stereo not shown) [Example 45] displayed an IC50 of 6 nM.

The assay is the same for the next values; noted with them: rabbit saphenous artery rings, contraction induced by phenylephrine.
With `CC(C)(C)c1ccc(COc2ccccc2/C=C/C(CCc2ccc(C(=O)O)cc2)Cc2ccc(C(=O)O)cc2)cc1` (racemic) [Example 2, 4-[(4E)-5-{2-[(4-tert-Butylbenzyl)oxy]phenyl}-3-(4-carboxybenzyl)pent-4-en-1-yl]benzoic Acid], the half-maximal inhibitory concentration (IC50) was determined as 0.54 nM.

As for `CC(C)(C)c1ccc(COc2ccccc2/C=C/C(CCc2ccc(C(=O)O)cc2)Cc2ccc(C(=O)O)cc2)cc1` (racemic) [Example 3, 4-[(4E)-5-{2-[(4-tert-Butylbenzyl)oxy]phenyl}-3-(4-carboxybenzyl)pent-4-en-1-yl]benzoic Acid], the IC50 was 4.7 nM. This IC50 is about 8.7-fold higher than that of the molecule before.

`O=C(O)c1ccc(CCC(/C=C/c2ccccc2OCCCCCc2ccccc2)Cc2ccc(C(=O)O)cc2)cc1` (racemic) [Example 6, 4-((4E)-3-(4-Carboxybenzyl)-5-{2-[(5-phenylpentyl)oxy]phenyl}pent-4-en-1-yl)benzoic Acid] gave an IC50 of 122 nM.
